These results are taken from patent US11491232B2, “Lactuloside compounds and preparation and use thereof” (Fruithy Holdings Limited, priority 2017, dated 2022).

The nature of data set [1]: Test on stability in mediums in vitro (buffer solutions with different pH, simulated intestinal fluid, simulated gastric fluid). The data set is classed as physicochemical. The method, then: At 37° C., Compound 17 was incubated in different mediums (buffer solutions with different pH, a simulated intestinal fluid containing pancreatin, and simulated gastric fluid containing pepsin).
(§1) Other typical example compounds were tested for stability according to the above method, and the test results are shown in Table 8 below.

A further data set concerns colon flora. Description: Stability in the presence of colon flora (content in colon of rat). The data set is classed as in vitro ADME, SD rat. How it is done: A phosphate buffer solution with a pH of 7.0 was formulated, and then CO2 was introduced to the solution to adjust the pH to 6.8. Then, the content in colon of a male SD rat (body weight: 180-220 g) was placed in a water bath at 37° C., and added into the phosphate buffer solution with a pH of 6.8 as prepared above under the protection of N2 to a concentration of 20% (w/v). The buffer solution was kept in an oxygen-free environment. Then, the test Compound 17 was added to the buffer solution, and the solution was stirred uniformly.
Supernatant was analyzed with HPLC, where the amount of each ingredient was calculated by normalization.
Note: in the above table, “T14.148 (%)” represents the percentage of peak area of the material with a retention time of 14.148 min “T14.713 (%)” represents the percentage of peak area of the material with a retention time of 14.713 min. “T16.392 (%)” represents the percentage of peak area of the material with a retention time of 16.392 min. “T22.624 (%)” represents the percentage of peak area of the material with a retention time of 22.624 min.
as §1

Setting [2] is: Simulated intestinal fluid (containing pancreatin) (pH 6.8) (8 h).
Where [3] appears, read: male, Sprague-Dawley (SD), rat, 1 h, pH 6.8.

Turning to `C[C@@H]1C[C@H]2[C@@H]3CCC4=CC(=O)C=C[C@]4(C)[C@@]3(F)[C@@H](O)C[C@]2(C)[C@@]1(O)C(=O)COC1(CO)O[C@H](CO)[C@@H](O[C@@H]2O[C@H](CO)[C@H](O)[C@H](O)[C@H]2O)[C@@H]1O` (stereo partly drawn) [Compound 4, (11β,16α)-9-fluoro-11,17-dihydroxyl-16-methyl-21-{[4-O-(β-D-galactopyranosyl)-D-fructofuranosyl]oxy}pregna-1,4-diene-3,20-dione], the results for the “Percentage of the example compound remaining (Composition, %)” value (in data set [1] (setting [2]); in data set [1] (Water (pH 1.2) (2 h)); in the data set on colon flora (setting [3])) were 99.4%, 25.0% and 15.6%, respectively. Further, the “Percentage of the released active drug (prednisolone, dexamethasone, budesonide, apremilast or prucalopride) (Composition, %)” value in data set [1] (setting [2]) is 0%; in data set [1] (Water (pH 1.2) (2 h)), 72.7%; with colon flora (setting [3]) it was 50.3%.

Take `COCCCN1CCC(NC(=O)c2cc(Cl)c(NC3(CO)O[C@H](CO)[C@@H](O[C@@H]4O[C@H](CO)[C@H](O)[C@H](O)[C@H]4O)[C@@H]3O)c3c2OCC3)CC1` (stereo partly drawn) [Compound 14, 5-chloro-2,3-dihydro-4-{[4-O-(β-D-galactopyranosyl)-D-fructofuranosyl]amino}-N-[1-(3-methoxypropyl)-4-piperidinyl]-7-benzofurancarboxamide]: the “Percentage of the example compound remaining (Composition, %)” value in data set [1] (setting [2]) is on record as 98.3%; in the data set on colon flora (Content in colon (pH 6.8) (1 h)), 2.1%. Moreover, the “Percentage of the released active drug (prednisolone, dexamethasone, budesonide, apremilast or prucalopride) (Composition, %)” value is on record as 1.1% in data set [1] (setting [2]) and 99.5% in data set [1] (Water (pH 1.2) (2 h)).

Consider `CCCC1O[C@@H]2C[C@H]3[C@@H]4CCC5=CC(=O)C=C[C@]5(C)[C@H]4[C@@H](O)C[C@]3(C)[C@]2(C(=O)COC2(CO)O[C@H](CO)C(O[C@@H]3OC(CO)[C@H](O)C(O)C3O)C2O)O1` (stereo partly drawn) [Compound 7, (11β,16α)-11-hydroxyl-16,17-(butylidenedioxy)-21-{[4-O-(β-D-galactopyranosyl)-D-fructofuranosyl]oxy}pregna-1,4-diene-3,20-dione], for which the “Percentage of the example compound remaining (Composition, %)” value in data set [1] (setting [2]) is reported as 98.9%; in data set [1] (Water (pH 1.2) (2 h)), 20.0%; in the data set on colon flora (setting [3]) it was 27.2%. Besides, the “Percentage of the released active drug (prednisolone, dexamethasone, budesonide, apremilast or prucalopride) (Composition, %)” value was 0.1% in data set [1] (setting [2]), 61.6% in data set [1] (Water (pH 1.2) (2 h)) and 45.9% with colon flora (setting [3]).
